As a reminder, the IC50 is the point on the concentration scale where inhibition reaches its midpoint. The low end stands for higher potency, the high end for lower potency.

The source of these data is patent US5652353A, “DNAs encoding tumor necrosis factor-α muteins” (priority 1990, dated 1997).

One experiment relates to human p55-TNF-R. Put plainly: Filter binding competition of 125I-TNFα on purified p55-TNF-R from HL60 cells. Conditions: with respect to TNFα. How it is done:
(§1) The filters were blocked with blocking buffer (50 mM Tris, 140 mM NaCl, 5 mM EDTA, 0.02% NaN3, 1% defatted milk powder) for 1.5 hours at room temperature. […] The filters were washed with blocking buffer (2× for 5 min.) and with H2 O (1× for 5 min.), air dried, and counted in a γ-counter.

A further experiment relates to mouse L929 cells. Put plainly: Standard L929 cytotoxicity assay. Conditions: relative to TNF-α. The format is cell-based. How it is done: (§2) The amount of protein was determined by the Biorad (Richmond, Calif., USA) protein dye reagent according to the instructions of the manufacturer. The purity of the TNF muteins was determined by SDS-PAGE. The cytotoxic activity on mouse L929 cells was determined using the standard L929 assay (Ruff and Gifford in "Lymphokines", ed. by E. Pick, Vol. 2, 235-275, Academic Press, 1981, Orlando, USA). The cytotoxicity assay on Hep-2 cells was performed the same way as the L929 assay with the only exception that cycloheximide (50 μg/ml) was added instead of actinomycin D.

For another experiment, the system named is human p75-TNF-R. Put plainly: Filter binding competition of 125I-TNFα on purified p75-TNF-R from HL60 cells. How it is done:
as §1

Experiment [1] has as its system Hep-2 cells (only carry p55-TNF-R). Put plainly: Competition analysis: displacement of 125I-TNF-α by unlabeled mutant TNF on Hep-2 cells. It is filed as binding, human. The note with it: for Mean dpm: Table C. How it is done: (§3) Hep-2 [ATCC No. CCL 23], U937 [ATCC No. CRL 1593] and RAJI [ATCC No. CCL 86] cells were grown in RPMI 1640 medium, supplemented with 10% (v/v) inactivated .fetal calf serum, L-glutamine (2 mM), sodium pyruvate (1 mM), 2-mercaptoethanol (5×10^-5 M), 1% of a 100× mixture of non-essential amino acids [Gibro Laboratories, Paisley, GB] and gentamycine ([…]). The non-adherent cells (U937 and RAJI) were harvested after reaching a density of 1×10^6 cells/ml. For binding experiments, the adherent Hep-2 cells were grown to confluency, trypsinized, collected and seeded in large. Petri dishes (150 cm^2) at a density of 2.5×10^6 cells/ml. Subsequently, the dishes were placed in a CO2 -incubator overnight. Because Hep-2 cells are not strongly adherent, the cells could be harvested the same way as the non-adherent cells. Dulbecco's medium, supplemented with 10% inactivated newborn calf serum was used for L929 cell growth. […] A ten well dilution series of unlabeled mutant TNF ([…] to 0.004 μM) in concentration steps in multiples of 2 was set up in a microtiterplate. […] After addition of 2×10^6 cells, the total volume was 0.2 ml/well. The medium of incubation, reaction conditions and isolation of the cells were exactly the same as described above for the Scatchard analysis experiments. […] The following experimental data were used for such calculations: From each experiment shown in these tables, the KD value was calculated using the programm of Mc. Pherson et al. (1985).
(In a radioligand displacement assay an active substance lowers the binding of a labelled ligand.)

The subject of experiment [2] is U937 cells (predominantly but not exclusively p75-TNF-R). Briefly: Competition analysis: displacement of 125I-TNF-α by unlabeled mutant TNF on U937 cells. The format is binding, human. The note with it: for Mean dpm: Table A. As for the experimental part:
as §3

Another experiment relates to Hep-2 cells. It is filed as cell-based, human. The note with it: in words; accuracy of assay a factor of 3. How it is done:
as §2

In experiment [3] the test system is human p75-TNF-R versus human p55-TNF-R. Briefly: Selectivity factor S from competitive binding to p75-TNF-R and p55-TNF-R. Conditions: based on IC50 p75-TNF-R and IC50 p55-TNF-R (Table F, FIGS. 10A-10E). How it is done:
as §1
After three hours at room temperature the wells were thoroughly washed with PBS and counted in a γ-counter.

Consider “Ser^29 -TNFα: TNF-α mutein with serine substituted at position 29, SEQ ID No: 4”, for which the results for the “Decrease in Affinity” value in the experiment with human p55-TNF-R and in the experiment on human p75-TNF-R (with respect to TNFα) were 8.2 fold and 250 fold, respectively. Moreover, the “decrease of biological activity on L929 cells (factor)” value in the experiment with mouse L929 cells is given as “more than 100”. In addition, in the experiment on human p75-TNF-R (competition with 125I-TNFα), the half-inhibitory concentration (IC50) worked out at 2.5 µg/mL. Moreover, the Mean dpm turned out to be 359 dpm in experiment [1] (experiment 1, Hep-2 cells, concentration of mutant 1 × 10^-6); 799 dpm in experiment [1] (experiment 1, Hep-2 cells, concentration of mutant 1 × 10^-9); 379 dpm in experiment [1] (experiment 1, Hep-2 cells, concentration of mutant 1.25 × 10^-7); 383 dpm in experiment [1] (experiment 1, Hep-2 cells, concentration of mutant 2 × 10^-6); 677 dpm in experiment [1] (experiment 1, Hep-2 cells, concentration of mutant 2 × 10^-9); 442 dpm in experiment [1] (experiment 1, Hep-2 cells, concentration of mutant 3.2 × 10^-8). Also, the Mean dpm in experiment [1] (experiment 1, Hep-2 cells, concentration of mutant 4 × 10^-9) amounted to 564 dpm; in experiment [1] (experiment 1, Hep-2 cells, concentration of mutant 5 × 10^-7), 437 dpm; in experiment [1] (experiment 1, Hep-2 cells, concentration of mutant 6.4 × 10^-8) it was 446 dpm; in experiment [1] (experiment 1, Hep-2 cells, concentration of mutant 8 × 10^-9), 510 dpm; in experiment [1] (experiment 1, Hep-2 cells, concentration of mutant […] 10^-7) it was 374 dpm; in experiment [1] (experiment 1, Hep-2 cells, concentration of mutant […] 10^-8), 451 dpm. The Mean dpm in experiment [1] (experiment 2, Hep-2 cells, concentration of mutant 1 × 10^-6) is given as 193 dpm; in experiment [1] (experiment 2, Hep-2 cells, concentration of mutant 1.2 × 10^-7), 239 dpm; in experiment [1] (experiment 2, Hep-2 cells, concentration of mutant 1.5 × 10^-8) it was 253 dpm; in experiment [1] (experiment 2, Hep-2 cells, concentration of mutant 2 × 10^-6), 238 dpm; in experiment [1] (experiment 2, Hep-2 cells, concentration of mutant 3 × 10^-8) it was 235 dpm; in experiment [1] (experiment 2, Hep-2 cells, concentration of mutant 4 × 10^-9), 273 dpm. The Mean dpm was determined as 211 dpm in experiment [1] (experiment 2, Hep-2 cells, concentration of mutant 5 × 10^-7); 207 dpm in experiment [1] (experiment 2, Hep-2 cells, concentration of mutant 6 × 10^-8); 240 dpm in experiment [1] (experiment 2, Hep-2 cells, concentration of mutant 8 × 10^-9); 632 dpm in experiment [2] (experiment 1, U937 cells, concentration of mutant 1 × 10^-6 [mol]); 1869 dpm in experiment [2] (experiment 1, U937 cells, concentration of mutant 1 × 10^-9 [mol]); 1200 dpm in experiment [2] (experiment 1, U937 cells, concentration of mutant 1.25 × 10^-7 [mol]). In addition, the Mean dpm in experiment [2] (experiment 1, U937 cells, concentration of mutant 2 × 10^-6 [mol]) worked out at 533 dpm; in experiment [2] (experiment 1, U937 cells, concentration of mutant 2 × 10^-9 [mol]), 1779 dpm; in experiment [2] (experiment 1, U937 cells, concentration of mutant 3.2 × 10^-8 [mol]) it was 1415 dpm; in experiment [2] (experiment 1, U937 cells, concentration of mutant 4 × 10^-9 [mol]), 1719 dpm; in experiment [2] (experiment 1, U937 cells, concentration of mutant 5 × 10^-7 [mol]) it was 949 dpm; in experiment [2] (experiment 1, U937 cells, concentration of mutant 6.4 × 10^-8 [mol]) it was 1320 dpm. Moreover, the Mean dpm in experiment [2] (experiment 1, U937 cells, concentration of mutant 8 × 10^-9 [mol]) is recorded as 1708 dpm; in experiment [2] (experiment 1, U937 cells, concentration of mutant […] 10^-7 [mol]), 983 dpm; in experiment [2] (experiment 1, U937 cells, concentration of mutant […] 10^-8 [mol]), 1575 dpm; in experiment [2] (experiment 2, U937 cells, concentration of mutant 1 × 10^-6 [mol]), 263 dpm; in experiment [2] (experiment 2, U937 cells, concentration of mutant 1.2 × 10^-7 [mol]) it was 413 dpm; in experiment [2] (experiment 2, U937 cells, concentration of mutant 1.5 × 10^-8 [mol]), 541 dpm. Also, the Mean dpm is 238 dpm in experiment [2] (experiment 2, U937 cells, concentration of mutant 2 × 10^-6 [mol]); 572 dpm in experiment [2] (experiment 2, U937 cells, concentration of mutant 3 × 10^-8 [mol]); 635 dpm in experiment [2] (experiment 2, U937 cells, concentration of mutant 4 × 10^-9 [mol]); 319 dpm in experiment [2] (experiment 2, U937 cells, concentration of mutant 5 × 10^-7 [mol]); 489 dpm in experiment [2] (experiment 2, U937 cells, concentration of mutant 6 × 10^-8 [mol]); 603 dpm in experiment [2] (experiment 2, U937 cells, concentration of mutant 8 × 10^-9 [mol]). Further, the Mean dpm in experiment [2] (experiment 2, U937 cells, concentration of mutant […] 10^-7 [mol]) is 380 dpm. Besides, the “binding constant (KD) with Hep-2 cells compared with TNF-α” value in experiment [1] (in words) is recorded as “almost the same as TNF-α”. For the same substance, the “binding affinity for p75-TNF-R as share of its binding affinity to p55-TNF-R” value in experiment [2] is “about 2%”. In addition, in experiment [2] (relative to its binding affinity to p55-TNF-R), the “reduction of binding affinity for p75-TNF-R” value is “approximately 50 fold”. Further, the “biological activity (specific activity) on Hep-2 cells” value in the experiment on Hep-2 cells is “largely retained”.
For “Tyr^29 -TNFα: TNF-α mutein with tyrosine substituted at position 29, SEQ ID No: 6”, the “selectivity factor S” value in experiment [3] was 110.
As for “Tyr^32 -TNFα: TNF-α mutein with tyrosine substituted at position 32, SEQ ID No: 10”, the “selectivity factor S” value in experiment [3] worked out at 90.
